From US7205409B2, “Pharmaceutical compositions as inhibitors of dipeptidyl peptidase-IV (DPP-IV)” (Abbott Laboratories, priority 2003, dated 2007)

Key:
[1] = Chemical Stability Assay (HPLC, phosphate buffer pH 7.4, 37° C.); type: physicochemical; details: stability to internal cyclization, read-out: chemical stability half-life (T1/2) (converted)
Method: For the determination of chemical stability, compounds of the present invention are assayed using the following protocol:
A solution of each DPP-IV compound was prepared in an appropriate mobile phase. This was injected and analyzed by HPLC to identify the parent drug peak in the chromatograms. Stability solutions were prepared in 50 mM phosphate buffer pH 7.4 adjusted to μ=0.155. Samples were weighed using a Mettler-Toledo microbalance and transferred into a 20 ml glass scintillation vial or a volumetric flask. The phosphate buffer pH 7.4 was added with an EDP Plus 10 ml electronic pipette. The samples were sonicated for approximately 2 minutes and filtered using a PTFE membrane syringe filter. The filtrate was transferred to amber HPLC vials and placed in an autosampler at 37° C. The first sample was immediately injected and counted as the time zero sample. The solution concentration was measured at various timepoints using an appropriate HPLC method. After data acquisition was completed, the chromatograms were processed for each compound. The rate and half-life were determined from a plot of log10 peak area remaining/peak area at zero time vs. exposure time @37° C. using Microsoft® Excel 2000. Rates of reaction and half-lives were calculated using a pseudo-first order kinetic model.

[2] = test system: Insulin resistant female ZDF rats; experiment: acute oral glucose tolerance test (OGTT); type: in vivo, rat; details: OGTT 2 gm/kg four hours later
Method: Compounds of the present invention are evaluated for the ability to treat diabetes using an acute oral glucose tolerance test (OGTT) as follows: Insulin resistant female ZDF rats, 11 weeks of age, on a normal chow diet, are fasted overnight. A baseline tail snip blood sample is taken to measure glucose levels (Precision PCx glucose meter, Abbott Laboratories, Abbott Park, Ill.) at the beginning of the experiment. Immediately after this baseline sample, compounds of the present invention (or placebo) are dosed orally. Four hours later, a tail snip blood glucose measurement is taken, immediately followed by an oral glucose dose (OGTT, 2 gm/kg). The glucose excursion is followed for 2 hr with samples taken at 10, 20, 30, 60 and 120 min post OGTT. These timed glucose data are used to construct a glucose excursion curve, from which an area under the glucose curve (AUGC) is determined. Data are reported as the baseline-adjusted area under the glucose curve (deltaAUGC) for drug and control groups.

Compound | half-life [1] [h] | δ AUGC ([2]; 1.0 mg/kg oral) | δ AUGC, change versus control ([2]; 1.0 mg/kg oral) [%] | δ AUGC ([2]; 3.0 mg/kg oral) | δ AUGC, change versus control ([2]; 3.0 mg/kg oral) [%]
C[C@H]1CC[C@@H](C(=O)N2CCC[C@H]2C#N)N1 [Comparative compound α] | 5.3 | – | – | – | –
N#C[C@@H]1CCCN1C(=O)[C@@H]1CC[C@H](c2ccccc2)N1 [Comparative compound γ] | 12.2 | – | – | – | –
N#C[C@@H]1CCCN1C(=O)[C@@H]1CC[C@H](COc2ccc(C(=O)O)c3ccccc23)N1 [Example 54, (2S)-1-{(5R)-5-((4-carboxynaphthalen-1-yloxy)methyl)-L-prolyl}-pyrrolidine-2-carbonitrile] | – | 7,600 mg/mL/dL | −24 | 7,300 mg/mL/dL | −27
